Values after ≈ are worked out from the molar mass of the structure shown. Like-named read-outs stand apart in the source and are kept apart here.
What was measured:
[1] = tested on: Mtb H37Rv; assay: TB MIC - SRI, resazurin-based microplate assay; format: cell-based, Mycobacterium tuberculosis; conditions: for MIC: Mycobacterium tuberculosis, H37RV
[2] = tested on: NRP Mtb H37Rv cells; assay: Low-oxygen recovery assay (LORA) MIC; format: cell-based, Mycobacterium tuberculosis; conditions: for MIC: Mycobacterium tuberculosis, H37RV, read-out: LORA MIC - ITR; for LORA MIC: Tables P1, P2, non-replicating M. tuberculosis
[3] = tested on: Vero cells
[4] = tested on: Mtb H37Rv; assay: TB MIC - ITR (UIC), Institute for Tuberculosis Research; format: cell-based, Mycobacterium tuberculosis; conditions: for MIC: Mycobacterium tuberculosis, H37RV, read-out: TB MIC - ITR; for TB MIC - UIC: Tables P1, P2
[5] = Tables 1-4 and text, read-out: TB MIC - SRI
[6] = Tables P1-P3, read-out: TB MIC - SRI

[O-][n+]1nc(N2CCCCC2)[n+]([O-])c2cc3c(cc21)CCC3 [Compound 20r, 3-(piperidin-1-yl)-7,8-dihydro-6H-indeno[5,6-e][1,2,4]triazine 1,4-dioxide]
MIC ([1]; Table 5, read-out: MIC, H37Rv): 0.62 µg/mL (≈ 2.17 µM)
MIC [2]: 0.49 µg/mL (≈ 1.71 µM)
Vero Tox CC50 ([3]; African green monkey, 72 h): 21 µg/mL
MIC ([4]; Tables 1-4): 0.4 µg/mL (≈ 1.4 µM)

CN(C)c1n[n+]([O-])c2cc3c(cc2[n+]1[O-])CCC3 [Compound 20s, 3-(dimethylamino)-7,8-dihydro-6H-indeno[5,6-e][1,2,4]triazine 1,4-dioxide]
MIC ([1]; Table 5, read-out: MIC, H37Rv): 0.62 µg/mL (≈ 2.52 µM)
MIC [2]: 1.5 µg/mL (≈ 6.09 µM)
Vero Tox CC50 ([3]; African green monkey, 72 h): 24 µg/mL
MIC ([4]; Tables 1-4): 0.3 µg/mL (≈ 1.22 µM)

CN(CCc1ccccc1)c1n[n+]([O-])c2cc3c(cc2[n+]1[O-])CCC3 [Compound 20u, 3-(methyl(phenethyl)amino)-7,8-dihydro-6H-indeno[5,6-e][1,2,4]triazine 1,4-dioxide]
MIC ([1]; Table 5, read-out: MIC, H37Rv): 0.31 µg/mL (≈ 0.922 µM)
MIC ([2]; NRP Mtb, Tables 1-4 and text): 0.44 µg/mL (≈ 1.31 µM)
Vero Tox CC50 ([3]; African green monkey, 72 h): 40 µg/mL
MIC ([4]; Tables 1-4): 0.24 µg/mL (≈ 0.713 µM)

O=S1(=O)CCN(c2n[n+]([O-])c3cc4c(cc3[n+]2[O-])CCC4)CC1 [Compound 20v, 3-(thiomorpholinosulfone-1-yl)-7,8-dihydro-6H-indeno[5,6-e][1,2,4]triazine 1,4-dioxide]
TB MIC - SRI ([1]; Tables 1-4 and text): 5.0 µg/mL
LORA MIC - ITR ([2]; NRP Mtb, Tables 1-4 and text): 30 µg/mL
Vero Tox CC50 [3]: 17 µg/mL
TB MIC - ITR ([4]; Tables 1-4): 15 µg/mL

CC1CCCCN1c1n[n+]([O-])c2cc3c(cc2[n+]1[O-])CCC3 (centres unmarked) [Compound 20w, 3-(2-methylpiperidin-1-yl)-7,8-dihydro-6H-indeno[5,6-e][1,2,4]triazine 1,4-dioxide]
MIC ([1]; Table 5, read-out: MIC, H37Rv): 1.2 µg/mL (≈ 4 µM)
MIC ([2]; NRP Mtb, Tables 1-4 and text): 0.47 µg/mL (≈ 1.56 µM)
Vero Tox CC50 ([3]; African green monkey, 72 h): >50 µg/mL
MIC ([4]; Tables 1-4): 0.66 µg/mL (≈ 2.2 µM)

CS(=O)(=O)N1CCN(c2n[n+]([O-])c3cc4c(cc3[n+]2[O-])CCC4)CC1 [Compound 20x, 3-(4-(methylsulfonyl)piperazin-1-yl)-7,8-dihydro-6H-indeno[5,6-e][1,2,4]triazine 1,4-dioxide]
MIC [1, 5]: 2.5 to 5 µg/mL (≈ 6.84 to 13.7 µM)
TB MIC - SRI ([1]; Tables 1-4 and text): 5.0 µg/mL
MIC ([2]; NRP Mtb, Tables 1-4 and text): 15 µg/mL (≈ 41 µM)
Vero Tox CC50 ([3]; African green monkey, 72 h): >50 µg/mL
MIC ([4]; Tables 1-4): 13 µg/mL (≈ 35.6 µM)

CO[C@H]1/C=C/O[C@@]2(C)Oc3c(C)c(O)c4c(O)c(c(/C=N/N5CCN(C)CC5)c(O)c4c3C2=O)NC(=O)/C(C)=C\C=C\[C@H](C)[C@H](O)[C@@H](C)[C@@H](O)[C@@H](C)[C@H](OC(C)=O)[C@@H]1C [RIF, Rifampin, reference compound]
MIC [1, 5]: 0.003 µg/mL (≈ 0.00365 µM)
MIC ([2]; NRP Mtb, Tables 1-4 and text): 2 µg/mL (≈ 2.43 µM)
Vero Tox CC50 ([3]; African green monkey, 72 h): >50 µg/mL
MIC ([4]; Tables 1-4): 0.041 µg/mL (≈ 0.0498 µM)

[O-][n+]1nc(NC2CC2)[n+]([O-])c2ccc(F)cc21 [SRI-012274]
MIC [1, 6]: 0.312 µg/mL (≈ 1.32 µM)
LORA MIC [2]: 2.8 µg/mL
VERO Tox-SRI ([3]; African green monkey, 72 h): 3.5
TB MIC - UIC [4]: 0.93 µg/mL

[O-][n+]1nc(NC2CCCCC2)[n+]([O-])c2ccc(F)cc21 [SRI-012275]
MIC [1, 6]: 0.625 µg/mL (≈ 2.25 µM)
LORA MIC [2]: 0.47 µg/mL
VERO Tox-SRI ([3]; African green monkey, 72 h): <2.5
TB MIC - UIC [4]: 0.68 µg/mL

[O-][n+]1nc(NC2CCC2)[n+]([O-])c2ccc(F)cc21 [SRI-012276]
MIC [1, 6]: 0.312 µg/mL (≈ 1.25 µM)
LORA MIC [2]: 0.88 µg/mL
VERO Tox-SRI ([3]; African green monkey, 72 h): 2.5
TB MIC - UIC [4]: 0.4 µg/mL

[O-][n+]1nc(NC2CCCC2)[n+]([O-])c2ccc(F)cc21 [SRI-012277]
MIC [1, 6]: 0.312 µg/mL (≈ 1.18 µM)
LORA MIC [2]: 0.34 µg/mL
VERO Tox-SRI ([3]; African green monkey, 72 h): 2.3
TB MIC - UIC [4]: 0.33 µg/mL

CCC(COC)Nc1n[n+]([O-])c2cc(F)ccc2[n+]1[O-] (centres unmarked) [SRI-012278]
MIC [1, 6]: 5 µg/mL (≈ 17.7 µM)
LORA MIC [2]: 1.87 µg/mL
VERO Tox-SRI ([3]; African green monkey, 72 h): 6.3
TB MIC - UIC [4]: 2 µg/mL

CCC(CC)Nc1n[n+]([O-])c2cc(F)ccc2[n+]1[O-] [SRI-012279]
MIC [1, 6]: 1.25 µg/mL (≈ 4.69 µM)
LORA MIC [2]: 0.71 µg/mL
VERO Tox-SRI ([3]; African green monkey, 72 h): 4.4
TB MIC - UIC [4]: 0.49 µg/mL

CC(C)CC(C)Nc1n[n+]([O-])c2cc(F)ccc2[n+]1[O-] (centres unmarked) [SRI-012281]
MIC [1, 6]: 1.25 µg/mL (≈ 4.46 µM)
LORA MIC [2]: 0.4 µg/mL
VERO Tox-SRI ([3]; African green monkey, 72 h): <2.5
TB MIC - UIC [4]: 0.55 µg/mL

[O-][n+]1nc(NC2CCCCCC2)[n+]([O-])c2ccc(F)cc21 [SRI-012282]
MIC [1, 6]: 0.625 µg/mL (≈ 2.14 µM)
LORA MIC [2]: 0.21 µg/mL
VERO Tox-SRI ([3]; African green monkey, 72 h): <2.5
TB MIC - UIC [4]: 0.39 µg/mL

CC(Nc1n[n+]([O-])c2cc(F)ccc2[n+]1[O-])C(C)(C)C (centres unmarked) [SRI-012283]
MIC [1, 6]: 1.25 µg/mL (≈ 4.46 µM)
LORA MIC [2]: 0.42 µg/mL
VERO Tox-SRI ([3]; African green monkey, 72 h): <2.5
TB MIC - UIC [4]: 0.5 µg/mL
